Source: PMC5191990 (Bioorganic & medicinal chemistry, 2016)
Counter-ions that a name gives are not always drawn.

Experiments:
Parental OVCAR-8 cells = assay: Cell proliferation; assay type: cell-based; conditions: Homo sapiens, OVCAR-8, 96 h, read-out: Parental OVCAR-8 IC50 (µM) ± SD
[1] = molecular target: T1, purified bovine brain tubulin (Bos taurus, UniProt P81947+Q6B856); assay: Tubulin assembly assay; assay type: biochemical; conditions: ratio of tubulin assembly IC50 vs 5
[2] = test system: β-III overexpressing HeLa cells; assay: Cell proliferation; assay type: cell-based
WT HeLa cells = assay: Cell proliferation; assay type: cell-based; conditions: Homo sapiens, 96 h, read-out: WT HeLa IC50 (µM) ± SD
[3] = molecular target: T1, purified bovine brain tubulin; conditions: read-out: tubulin assembly IC50 (µM) ± SD; cited from earlier work
[4] = test system: BLBC MDA-MB-435 and U251 glioma xenografts, 4T1 triple negative breast allograft; conditions: cited from earlier work
[5] = test system: Pgp overexpressing NCI/ADR-RES cells; assay: Cell proliferation; assay type: cell-based; conditions: Homo sapiens, 96 h, read-out: Pgp overexpressing NCI/ADR-RES IC50 (µM) ± SD

T1 sequence (P81947 whole entry): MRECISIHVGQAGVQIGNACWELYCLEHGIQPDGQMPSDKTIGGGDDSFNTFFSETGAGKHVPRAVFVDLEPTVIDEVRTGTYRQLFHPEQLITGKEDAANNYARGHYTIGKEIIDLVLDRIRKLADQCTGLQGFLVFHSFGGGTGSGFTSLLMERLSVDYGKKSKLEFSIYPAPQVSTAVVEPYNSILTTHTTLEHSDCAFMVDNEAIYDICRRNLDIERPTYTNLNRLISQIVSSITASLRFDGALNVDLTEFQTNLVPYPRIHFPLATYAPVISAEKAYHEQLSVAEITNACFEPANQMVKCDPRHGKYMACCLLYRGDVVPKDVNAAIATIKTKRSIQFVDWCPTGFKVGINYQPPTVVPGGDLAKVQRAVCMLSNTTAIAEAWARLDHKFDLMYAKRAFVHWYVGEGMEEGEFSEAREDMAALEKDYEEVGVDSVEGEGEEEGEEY
T1 sequence (Q6B856 whole entry): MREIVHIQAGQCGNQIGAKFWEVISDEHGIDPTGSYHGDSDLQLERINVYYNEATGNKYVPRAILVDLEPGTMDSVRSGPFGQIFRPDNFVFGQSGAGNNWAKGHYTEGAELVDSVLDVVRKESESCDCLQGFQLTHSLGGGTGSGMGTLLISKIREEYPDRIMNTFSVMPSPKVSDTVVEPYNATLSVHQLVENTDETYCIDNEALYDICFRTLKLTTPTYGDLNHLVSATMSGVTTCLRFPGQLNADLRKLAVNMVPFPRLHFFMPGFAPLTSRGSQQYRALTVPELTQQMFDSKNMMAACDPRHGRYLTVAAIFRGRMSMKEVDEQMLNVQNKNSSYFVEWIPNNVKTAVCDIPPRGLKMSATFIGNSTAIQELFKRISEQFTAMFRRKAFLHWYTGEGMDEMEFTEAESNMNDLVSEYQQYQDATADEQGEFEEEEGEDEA

With `COc1ccc2c(c1)CCCN2c1nc(C)nc2c(Cc3ccccc3)c[nH]c12` [5·HCl, 1-(7-benzyl-2-methyl-5H-pyrrolo[3,2-d]pyrimidin-4-yl)-6-methoxy-1,2,3,4-tetrahydroquinoline hydrochloride] the IC50 (Parental OVCAR-8 cells) was 0.12 ± 0.004 µM.
In the case of `COc1ccc(N(C)c2nc(C)nc3c(Cc4ccccc4)cn(C)c23)cc1.Cl` [7·HCl, 7-benzyl-N-(4-methoxyphenyl)-N,2,5-trimethyl-5H-pyrrolo[3,2-d]pyrimidin-4-amine hydrochloride], the “fold more potent than 5 in tubulin assembly” value [1] is reported as roughly 7 fold and the “fold less potent in βIII-tubulin overexpressing HeLa than in wild type HeLa” value ([2]; isogenic HeLa cell line pair) is reported as “equal potency”.
For `COc1ccc(/C=C\c2cc(OC)c(OC)c(OC)c2)cc1O` [CA, combretastatin A-4], the IC50 (WT HeLa cells) was 0.0018 ± 0.0004 µM.
For `COc1ccc(N(C)c2nc(C)nc3c(Cc4ccccc4)c[nH]c23)cc1` [Compound 3], the IC50 [3] is given as 21 ± 1 µM, the toxicity to animals [4] is given as “without overt toxicity” and the “tumor size and vascularity” value ([4]; two flank xenograft models and 4T1 orthotopic allograft) is given as “reduced tumor size and vascularity”.
`CC(=O)O[C@H]1C(=O)[C@@]2(C)[C@H]([C@H](OC(=O)c3ccccc3)[C@]3(O)C[C@H](OC(=O)[C@H](O)[C@@H](NC(=O)c4ccccc4)c4ccccc4)C(C)=C1C3(C)C)[C@]1(OC(C)=O)CO[C@@H]1C[C@@H]2O` [Paclitaxel, paclitaxel] gave an IC50 ([2]; Homo sapiens, HeLa, 96 h, read-out: β-III overexpressing HeLa IC50 (µM) ± SD) of 0.016 ± 0.001 µM, an IC50 (Parental OVCAR-8 cells) of 0.005 ± 0.001 µM and an IC50 [5] of 2.5 µM.
